Results: patent US20160339079A1, “TRANSMUCOSAL AND TRANSEPITHELIAL DRUG DELIVERY SYSTEM” (UNIVERSITY OF BIRMINGHAM, priority 2014, published 2016)

Assays:
Retinal Ganglion Cells = format: cell-based, rats
Method: The cells were studied against several cell lines for any cytotoxic effects they might induce. Dissociated retinal cultures were prepared from rats and plated onto culture plates. The cells were treated with nanosome peptide and then incubated for 72 hours and fixed with formaldehyde. The cells were stained with β3 tubulin and imaged on the fluorescence microscope. The positive cells were counted and comparisons were taken.

[1] = system: primary rat meningeal fibroblast cells; format: cell-based, Sprague-Dawley Rats
Method: The nanosome toxicity was also tested against primary rat meningeal fibroblast cells. The cells were isolated from Sprague-Dawley Rats. The leptomeninges was removed from the rat and the meningeal fibroblast cells were isolated from the tissue. The cells were then plated out and treated with nanosome. The cell media was supplemented with resazurin for 2 hours and then harvested and the media fluorescence read at 570 nm. The cell samples were then frozen in deionised water for DNA analysis (FIG. 7). […] This supports the work carried out in the retinal cultures that the nanosomes are not toxic.

[2] = system: gram positive and gram negative bacteria; test: Broad spectrum antibacterial activity; format: cell-based; conditions: both gram positive and gram negative bacteria
Method: It is effective at killing both gram positive and gram negative bacteria and was particularly selective against pseudomonas aeruginosa with a MIC of 0.03 mg/mL.

Structure (SMILES): N=C(N)NCCC[C@H](NC(=O)[C@H](CCCNC(=N)N)NC(=O)[C@H](CCCNC(=N)N)NC(=O)[C@H](CCCNC(=N)N)NC(=O)[C@H](CCCNC(=N)N)NC(=O)[C@H](CCCNC(=N)N)NC(=O)CCCCCNC(=S)Nc1ccc2c(c1)C(=O)OC21c2ccc(O)cc2Oc2cc(O)ccc21)C(=O)O [nanosome, RRRRRR-Linker-FITC]
- β3 tubulin positive cells, treated wells versus control (Retinal Ganglion Cells): no significant difference
- effect on the number of cells in the sample (DNA assay) [1]: did not have a significant effect
- killing of bacteria [2]: highly effective broad spectrum antibacterial agent
